From PMC11801715, “Activating PKC-ε induces HIV expression with improved tolerability” (PLOS Pathogens, 2025)

Assays:
PKC-θ = PKC-θ (Homo sapiens, UniProt Q04759); test: Cell fractionation and western blotting in CD4+ T cells; type: cell-based; settings: 1 hour
Experimental: (§1) CD4^+ T cells treated with C-232A for 1 hour in a concentration-dependent manner were separated into cytoplasmic and membrane protein fractions using a cell fractionation kit (Cell Signaling Technology, catalog 9038) and protein concentrations quantified using a Pierce BCA assay (Thermo Fisher Scientific, catalog 23227). 4–6 μg of fractionated total protein lysate was fractionated on SDS-PAGE gel using Peggy Sue (Protein Simple). The resulting area under the curve was normalized against β-actin.
(§2) (A) Western blot of PKC isoforms θ, α, β2, and β1 in cytoplasmic and membrane fractions of CD4^+ T cells treated with C-232A. […] Area under the peak generated by western blot analysis of membrane-associated PKC isoforms after treatment and plotted using GraphPad software. AUC plots were used to generate EC50 values (D). (PNG)

[1] = system: classical isoforms PKC-α, PKC-β1, PKC-β2; test: as above; type: cell-based; settings: 1 hour
Experimental: as §1, §2

[2] = system: plasma cytokines/chemokines; test: Cytokine/chemokine analysis in plasma; type: in vivo, rhesus macaque; settings: 4 hours post dose
Text: For plasma cytokine analysis (S1 Table), whole blood was collected into K2EDTA tubes from C-232A and vehicle dosed rhesus macaques (prebleed and various post-dose time points) and plasma was isolated and stored at −80^ºC. Cytokine/chemokine analysis in plasma samples was accomplished using a nonhuman primate-specific 37 Plex ProcartaPlex immunoassay system (Thermo Fisher Scientific) according to the manufacturer’s instructions. Samples were then read on a Luminex 200 (Luminex) platform and analyzed using Bio-plex Manager software (Bio-Rad).

HIV p24 = HIV p24 digital immunoassay in culture supernatants; type: cell-based, HIV-1; settings: Human immunodeficiency virus 1, CD4+ T, read-out: p24 EC50
Experimental: The fully automated Quanterix HD-X analyzer for single molecule detection was utilized to measure HIV p24 levels in culture supernatants (stored frozen at –80°C until use). Upon thaw, Triton X-100 was added to a final concentration of 1% to culture supernatants, incubated for 1 hour at room temperature before analysis on the same day. An in-house standard using purified HIV p24 protein was utilized in place of the standard provided in the p24 Simoa kit (Quanterix, catalog 102215). Briefly, p24 protein purchased from Advanced Biotechnologies, catalog 14-101-050, was reconstituted to 200 ng/mL in complete RPMI and stored at –80 in smaller aliquots. Standard curve was made in a […] dilution series from 40000 to 1.8 fg/ml in complete RPMI with 1% Triton X-100. All other assay reagents and assay reaction conditions followed the manufacturer’s protocol. p24 concentration in experimental samples was calculated based on a p24 calibration curve with 4-parameter curve fitting.

[3] = system: cellular p24 in CD4+ T cells; test: Ex vivo HIV-Flow assay in CD4+ T cells; type: cell-based, HIV-1; settings: 500 nM in HIV-Flow, 72 hours
Experimental: Isolated CD4^+ T cells from ART-suppressed people with HIV were cultured in RPMI medium containing 10% FBS, 100 nM efavirenz, and 1 μM tenofovir alafenamide at 2 million cells per mL. These cells were subsequently stimulated with DMSO (vehicle control), 500 nM PKC agonist C-233, or 162 nM PMA and 1 µg/mL ionomycin. The cells were cultured at 37°C, 5% CO2 for 3 days. After 3 days, the cells were washed with PBS, stained with Live/Dead Fixable Aqua for 25 minutes at 4°C, followed by 2% FBS in PBS wash. Cells were then fixed and permeabilized in FoxP3 Fix/Perm buffer (E-Bioscience, catalog 005523) for 45 minutes at 4°C, followed by FoxP3 Perm buffer wash. The samples were stained with 2 different anti-p24 antibodies, (KC57-PE/ Beckman Coulter, 6604667, and a28B7-APC Medimabs, MM-0289-APC) diluted 1:1000 in FoxP3 Perm buffer for 45 minutes at 4°C, washed with FoxP3 Perm buffer, and resuspended in PBS. The samples were run on the BD LSR Fortessa II flow cytometer. The data were analyzed using FlowJo version 10.7.1.
Supplementary file ppat.1012874.s012.png: S9 Fig C-233 induces HIV activation in CD4^+ T cells from ART-suppressed people with HIV. […]

PKC-θ, sequence (Q04759 whole entry): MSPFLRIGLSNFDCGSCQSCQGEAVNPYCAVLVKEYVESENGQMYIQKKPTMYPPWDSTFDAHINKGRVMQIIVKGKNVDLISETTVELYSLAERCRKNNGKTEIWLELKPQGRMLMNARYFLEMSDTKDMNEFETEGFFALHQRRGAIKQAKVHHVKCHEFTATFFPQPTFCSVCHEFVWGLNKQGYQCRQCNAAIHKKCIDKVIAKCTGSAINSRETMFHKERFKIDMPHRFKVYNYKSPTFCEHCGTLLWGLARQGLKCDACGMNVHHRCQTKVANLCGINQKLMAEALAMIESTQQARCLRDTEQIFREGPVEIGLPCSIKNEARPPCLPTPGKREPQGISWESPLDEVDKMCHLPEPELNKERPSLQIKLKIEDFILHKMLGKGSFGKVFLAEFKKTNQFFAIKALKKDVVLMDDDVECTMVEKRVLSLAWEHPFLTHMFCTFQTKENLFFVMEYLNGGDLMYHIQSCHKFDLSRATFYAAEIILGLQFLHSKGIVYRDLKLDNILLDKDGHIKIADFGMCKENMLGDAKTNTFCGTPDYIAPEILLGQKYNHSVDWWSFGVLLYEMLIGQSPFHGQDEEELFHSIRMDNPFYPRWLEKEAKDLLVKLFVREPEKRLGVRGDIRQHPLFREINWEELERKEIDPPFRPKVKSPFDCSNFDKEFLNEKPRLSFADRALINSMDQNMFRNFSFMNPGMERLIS

Cc1ccc(C#Cc2ccc3oc(CC(C)(C)C(=O)OCC4(CO)CC(=CCC(CC(C)C)CC(C)C)C(=O)O4)cc3c2)cc1 (stereo not shown) [C-232A]
translocation of PKC-θ from cytoplasm to cell membrane (PKC-θ): translocated PKC-θ from the cytoplasm to the cell membrane in a dose-dependent manner | translocation of classical isoforms α, β1, β2 [1]: did not translocate classical isoforms α, β1, or β2 | I-TAC in plasma ([2]; 0.03 mg/kg): 88 pg/mL | IFN-α in plasma ([2]; 0.03 mg/kg): 90 pg/mL | IFN-γ in plasma ([2]; 0.03 mg/kg): 43 pg/mL | IL-1RA in plasma ([2]; 0.03 mg/kg): 169 pg/mL | IL-1β in plasma ([2]; 0.03 mg/kg): 45 pg/mL | IL-6 in plasma ([2]; 0.03 mg/kg): 43 pg/mL | IL-8 in plasma ([2]; 0.03 mg/kg): 275 pg/mL | IL-10 in plasma ([2]; 0.03 mg/kg): 42 pg/mL | IL-18 in plasma ([2]; 0.03 mg/kg): 114 pg/mL | MCP-1 in plasma ([2]; 0.03 mg/kg): 1900 pg/mL | MIG in plasma ([2]; 0.03 mg/kg): 55 pg/mL | MIP-1α in plasma ([2]; 0.03 mg/kg): 208 pg/mL | MIP-1β in plasma ([2]; 0.03 mg/kg): 131 pg/mL | TNF-α in plasma ([2]; 0.03 mg/kg): 56 pg/mL | VEGF-A in plasma ([2]; 0.03 mg/kg): 107 pg/mL | I-TAC in plasma ([2]; 0.1 mg/kg): 427 pg/mL | IFN-α in plasma ([2]; 0.1 mg/kg): 143 pg/mL | IFN-γ in plasma ([2]; 0.1 mg/kg): 75 pg/mL | IL-1RA in plasma ([2]; 0.1 mg/kg): 775 pg/mL | IL-1β in plasma ([2]; 0.1 mg/kg): 70 pg/mL | IL-6 in plasma ([2]; 0.1 mg/kg): 126 pg/mL | IL-8 in plasma ([2]; 0.1 mg/kg): 2531 pg/mL | IL-10 in plasma ([2]; 0.1 mg/kg): 80 pg/mL | IL-18 in plasma ([2]; 0.1 mg/kg): 193 pg/mL | MCP-1 in plasma ([2]; 0.1 mg/kg): 3250 pg/mL | MIG in plasma ([2]; 0.1 mg/kg): 64 pg/mL | MIP-1α in plasma ([2]; 0.1 mg/kg): 160 pg/mL | MIP-1β in plasma ([2]; 0.1 mg/kg): 428 pg/mL | TNF-α in plasma ([2]; 0.1 mg/kg): 39 pg/mL | VEGF-A in plasma ([2]; 0.1 mg/kg): 161 pg/mL | I-TAC in plasma ([2]; 0.3 mg/kg): 365 pg/mL | IFN-α in plasma ([2]; 0.3 mg/kg): 112 pg/mL | IFN-γ in plasma ([2]; 0.3 mg/kg): 53 pg/mL | IL-1RA in plasma ([2]; 0.3 mg/kg): 2265 pg/mL | IL-1β in plasma ([2]; 0.3 mg/kg): 59 pg/mL | IL-6 in plasma ([2]; 0.3 mg/kg): 76 pg/mL | IL-8 in plasma ([2]; 0.3 mg/kg): 375 pg/mL | IL-10 in plasma ([2]; 0.3 mg/kg): 54 pg/mL | IL-18 in plasma ([2]; 0.3 mg/kg): 145 pg/mL | MCP-1 in plasma ([2]; 0.3 mg/kg): 6117 pg/mL | MIG in plasma ([2]; 0.3 mg/kg): 55 pg/mL | MIP-1α in plasma ([2]; 0.3 mg/kg): 187 pg/mL | MIP-1β in plasma ([2]; 0.3 mg/kg): 707 pg/mL | TNF-α in plasma ([2]; 0.3 mg/kg): 19 pg/mL | VEGF-A in plasma ([2]; 0.3 mg/kg): 81 pg/mL | I-TAC in plasma ([2]; 1 mg/kg): 5602 pg/mL | IFN-α in plasma ([2]; 1 mg/kg): 187 pg/mL | IFN-γ in plasma ([2]; 1 mg/kg): 200 pg/mL | IL-1RA in plasma ([2]; 1 mg/kg): 4471 pg/mL | IL-1β in plasma ([2]; 1 mg/kg): 343 pg/mL | IL-6 in plasma ([2]; 1 mg/kg): 3872 pg/mL | IL-8 in plasma ([2]; 1 mg/kg): 6153 pg/mL | IL-10 in plasma ([2]; 1 mg/kg): 82 pg/mL | IL-18 in plasma ([2]; 1 mg/kg): 351 pg/mL | MCP-1 in plasma ([2]; 1 mg/kg): 13,620 pg/mL | MIG in plasma ([2]; 1 mg/kg): 658 pg/mL | MIP-1α in plasma ([2]; 1 mg/kg): 1111 pg/mL | MIP-1β in plasma ([2]; 1 mg/kg): 3913 pg/mL | TNF-α in plasma ([2]; 1 mg/kg): 28 pg/mL | VEGF-A in plasma ([2]; 1 mg/kg): 330 pg/mL

Cc1ccc(C#Cc2ccc(C(=O)OCC3(CO)Cc4c(-c5ccccc5)ccnc4O3)cc2)cc1 (stereo not shown) [C-233]
EC50 (HIV p24): 428 nM | HIV protein production (supernatant p24 and cellular p24 by HIV-Flow) [3]: activated production of viral protein
